Experimental data reported in ChEMBL document CHEMBL4411318, “Discovery of a Series of 2'-α-Fluoro,2'-β-bromo-ribonucleosides and Their Phosphoramidate Prodrugs as Potent Pan-Genotypic Inhibitors of Hepatitis C Virus” (J Med Chem, 2019).

What was measured:
[1] = biological target: DNA-directed RNA polymerase, mitochondrial (Homo sapiens, UniProt O00411); test: Substrate activity at human POLRMT assessed as 5-radiolabled RNA/DNA incorporation levels at 100 uM after 2 hrs by PAGE analysis; format: ADME
Sequence of DNA-directed RNA polymerase, mitochondrial (O00411 whole entry): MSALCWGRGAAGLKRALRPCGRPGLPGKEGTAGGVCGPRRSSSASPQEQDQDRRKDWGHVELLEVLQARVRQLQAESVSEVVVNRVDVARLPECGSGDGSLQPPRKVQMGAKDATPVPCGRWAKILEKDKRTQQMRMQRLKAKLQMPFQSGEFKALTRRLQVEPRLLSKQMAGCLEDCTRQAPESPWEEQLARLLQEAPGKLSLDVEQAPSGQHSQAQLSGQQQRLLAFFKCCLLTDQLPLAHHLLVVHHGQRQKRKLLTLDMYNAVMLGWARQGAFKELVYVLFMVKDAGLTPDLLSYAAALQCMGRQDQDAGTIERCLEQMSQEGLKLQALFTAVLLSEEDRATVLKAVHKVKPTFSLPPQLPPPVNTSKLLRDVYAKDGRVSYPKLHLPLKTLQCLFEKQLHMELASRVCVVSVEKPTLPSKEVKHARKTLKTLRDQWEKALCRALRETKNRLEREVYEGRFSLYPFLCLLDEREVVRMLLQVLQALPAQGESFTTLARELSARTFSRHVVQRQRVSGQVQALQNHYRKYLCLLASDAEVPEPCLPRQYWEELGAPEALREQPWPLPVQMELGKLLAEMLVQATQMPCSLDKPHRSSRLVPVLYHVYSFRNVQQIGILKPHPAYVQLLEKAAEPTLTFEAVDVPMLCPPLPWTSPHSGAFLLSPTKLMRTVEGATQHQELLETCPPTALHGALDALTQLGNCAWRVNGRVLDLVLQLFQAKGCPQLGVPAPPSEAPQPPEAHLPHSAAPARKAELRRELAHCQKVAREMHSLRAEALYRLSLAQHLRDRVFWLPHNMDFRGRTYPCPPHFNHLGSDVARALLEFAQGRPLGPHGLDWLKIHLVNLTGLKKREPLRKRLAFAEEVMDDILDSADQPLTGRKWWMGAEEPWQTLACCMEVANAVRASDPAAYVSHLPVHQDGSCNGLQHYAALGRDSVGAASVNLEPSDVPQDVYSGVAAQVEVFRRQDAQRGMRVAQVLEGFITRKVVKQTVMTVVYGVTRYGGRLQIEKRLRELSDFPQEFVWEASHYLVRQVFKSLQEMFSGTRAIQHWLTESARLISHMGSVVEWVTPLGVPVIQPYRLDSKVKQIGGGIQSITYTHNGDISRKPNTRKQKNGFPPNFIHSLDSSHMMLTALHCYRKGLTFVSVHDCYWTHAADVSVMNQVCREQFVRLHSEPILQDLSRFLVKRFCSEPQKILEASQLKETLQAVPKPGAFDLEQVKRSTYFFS

[2] = biological target: T1, DNA polymerase alpha catalytic subunit (Homo sapiens, UniProt P09884); test: Inhibition of human DNA polymerase alpha using 5-end radiolabeled 24nt to 48nt DNA as primer template after 5 mins in presence of dCTP/dGTP/dTTP/dATP by PAGE analysis
T1 sequence (P09884 whole entry): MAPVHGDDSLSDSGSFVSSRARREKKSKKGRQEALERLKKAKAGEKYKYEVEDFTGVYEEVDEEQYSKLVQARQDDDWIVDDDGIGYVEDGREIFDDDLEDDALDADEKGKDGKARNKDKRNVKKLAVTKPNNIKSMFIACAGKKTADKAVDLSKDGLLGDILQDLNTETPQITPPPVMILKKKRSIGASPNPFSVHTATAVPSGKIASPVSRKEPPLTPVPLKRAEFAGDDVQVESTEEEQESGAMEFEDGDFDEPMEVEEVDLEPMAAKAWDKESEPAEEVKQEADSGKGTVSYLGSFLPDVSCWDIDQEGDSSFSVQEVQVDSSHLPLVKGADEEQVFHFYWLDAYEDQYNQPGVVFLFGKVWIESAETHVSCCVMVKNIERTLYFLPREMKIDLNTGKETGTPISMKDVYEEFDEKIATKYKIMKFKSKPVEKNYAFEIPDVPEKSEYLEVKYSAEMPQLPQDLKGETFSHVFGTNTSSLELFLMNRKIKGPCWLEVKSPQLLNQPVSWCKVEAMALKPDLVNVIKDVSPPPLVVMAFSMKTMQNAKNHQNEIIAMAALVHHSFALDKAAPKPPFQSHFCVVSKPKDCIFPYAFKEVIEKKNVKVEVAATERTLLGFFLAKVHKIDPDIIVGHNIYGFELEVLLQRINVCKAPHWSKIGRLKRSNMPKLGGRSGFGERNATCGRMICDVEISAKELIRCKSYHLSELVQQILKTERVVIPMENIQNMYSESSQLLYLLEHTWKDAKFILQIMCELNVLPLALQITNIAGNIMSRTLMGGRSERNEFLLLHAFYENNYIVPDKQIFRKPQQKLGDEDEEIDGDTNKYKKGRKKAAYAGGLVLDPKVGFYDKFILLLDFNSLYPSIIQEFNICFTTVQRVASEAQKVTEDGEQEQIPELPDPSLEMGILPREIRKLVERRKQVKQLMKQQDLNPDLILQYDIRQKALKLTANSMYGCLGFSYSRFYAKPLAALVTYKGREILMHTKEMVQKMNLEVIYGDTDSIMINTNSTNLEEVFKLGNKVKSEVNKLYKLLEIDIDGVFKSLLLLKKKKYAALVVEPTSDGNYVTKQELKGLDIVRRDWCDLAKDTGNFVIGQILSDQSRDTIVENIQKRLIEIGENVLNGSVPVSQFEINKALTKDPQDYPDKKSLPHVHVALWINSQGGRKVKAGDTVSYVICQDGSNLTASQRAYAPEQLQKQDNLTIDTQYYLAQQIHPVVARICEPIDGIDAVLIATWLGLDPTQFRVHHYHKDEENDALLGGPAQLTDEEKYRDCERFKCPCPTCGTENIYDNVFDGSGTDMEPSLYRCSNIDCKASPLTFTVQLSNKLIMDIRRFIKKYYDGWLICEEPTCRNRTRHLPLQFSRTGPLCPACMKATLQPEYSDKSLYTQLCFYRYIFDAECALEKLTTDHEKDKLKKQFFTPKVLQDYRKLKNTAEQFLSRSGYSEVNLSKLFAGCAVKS

DNA polymerase beta = DNA polymerase beta (Homo sapiens, UniProt P06746); test: Inhibition of human DNA polymerase beta using 5-end radiolabeled 24nt to 48nt DNA as primer template after 5 mins in presence of dCTP/dGTP/dTTP/dATP by PAGE analysis
[3] = Inhibition of human DNA polymerase gamma using 5-end radiolabeled 24nt to 48nt DNA as primer template after 120 mins in presence of dCTP/dGTP/dTTP/dATP by PAGE analysis
HepG2 = test: Mitochondrial toxicity in human HepG2 cells assessed as lactic acid production at 50 uM followed by medium plus drugs replenishment every 3 to 4 days for 14 days relative to control; format: cell-based; settings: hepg2, 336 h
[4] = Cytotoxicity against human PBMC assessed reduction in cell viability after 5 days by MTT assay; format: cell-based; settings: PBMC
[5] = Cytotoxicity against human CCRF-CEM assessed reduction in cell viability after 4 days by MTT assay; format: cell-based; settings: CCRF-CEM cells
[6] = tested on: cytochrome c oxidase subunit 2 DNA level; test: Mitochondrial toxicity in human HepG2 cells assessed as inhibition of cytochrome c oxidase subunit 2 DNA level at 50 uM followed by medium plus drugs replenishment every 3 to 4 days for 14 days relative to control; format: cell-based
[7] = tested on: nuclear ribosomal-DNA level; test: Mitochondrial toxicity in human HepG2 cells assessed as inhibition of nuclear ribosomal-DNA level at 50 uM followed by medium plus drugs replenishment every 3 to 4 days for 14 days relative to control; format: cell-based
[8] = tested on: cytochrome c oxidase subunit 2 DNA level; test: Mitochondrial toxicity in human HepG2 cells assessed as inhibition of cytochrome c oxidase subunit 2 DNA level followed by medium plus drugs replenishment every 3 to 4 days for 14 days relative to control; format: cell-based
[9] = Stability in Beagle dog plasma assessed as compound remaining at 2 uM up to 2 hrs by LC-MS/MS analysis; format: ADME, cell-free, Canis lupus familiaris; settings: read-out: Stability
[10] = Stability in Sprague-Dawley rat plasma assessed as compound remaining at 2 uM after 2 hrs by LC-MS/MS analysis; format: ADME, cell-free; settings: read-out: Stability
[11] = biological target: RNA-directed RNA polymerase (Hepacivirus hominis) (UniProt O39930); settings: Hepatitis C virus subtype 1b
Sequence of RNA-directed RNA polymerase (Hepacivirus hominis) (O39930 1-591): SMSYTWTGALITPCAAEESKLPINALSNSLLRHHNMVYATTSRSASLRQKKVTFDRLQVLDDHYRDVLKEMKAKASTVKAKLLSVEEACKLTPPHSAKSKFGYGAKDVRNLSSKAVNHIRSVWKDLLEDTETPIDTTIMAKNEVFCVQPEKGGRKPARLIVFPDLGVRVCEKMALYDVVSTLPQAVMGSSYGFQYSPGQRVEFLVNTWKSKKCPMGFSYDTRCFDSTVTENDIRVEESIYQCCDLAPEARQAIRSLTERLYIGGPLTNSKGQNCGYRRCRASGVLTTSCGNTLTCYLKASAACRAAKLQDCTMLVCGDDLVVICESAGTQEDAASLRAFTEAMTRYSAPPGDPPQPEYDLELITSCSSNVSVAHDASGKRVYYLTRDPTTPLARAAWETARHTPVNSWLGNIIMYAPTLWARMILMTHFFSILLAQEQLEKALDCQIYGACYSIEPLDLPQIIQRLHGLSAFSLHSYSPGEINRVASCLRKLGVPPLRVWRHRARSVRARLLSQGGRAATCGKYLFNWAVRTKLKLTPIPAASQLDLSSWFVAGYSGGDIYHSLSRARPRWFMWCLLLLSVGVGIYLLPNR
Description: Inhibition of NS5B polymerase in wild type HCV genotype 1b infected in human Huh7 replicon cells after 5 days by RT-PCR assay

[12] = tested on: nuclear ribosomal-DNA level; test: in vitro; settings: human, HepG2 cells
Huh-7 = test: Cytotoxicity against human HuH7 cells assessed reduction in cell viability after 3 to 5 days by cellular ribosomal RNA amplification assay
[13] = Cytotoxicity against human HuH7 cells assessed reduction in cell viability after 3 to 5 days by MTT assay; format: cell-based, Huh-7
Vero = format: cell-based; settings: chlorocebus sabaeus, 72 h
in vitro [14] = settings: human, liver microsomes
Description: Intrinsic clearance in human liver measured from intrinsic clearance in human liver microsomes in presence of NADPH regenerating system by LC/MS/MS analysis

[15] = Mitochondrial toxicity in human HepG2 cells assessed as reduction in cell viability after 14 days in presence of glucose supplemented media by ATP depletion assay; format: cell-based
[16] = Mitochondrial toxicity in human HepG2 cells assessed as reduction in cell viability after 3 days in presence of galactose supplemented media by ATP depletion assay; format: cell-based
[17] = Mitochondrial toxicity in human HepG2 cells assessed as reduction in cell viability after 3 days in presence of glucose supplemented media by ATP depletion assay; format: cell-based
[18] = biological target: RNA-directed RNA polymerase (Hepacivirus hominis) (UniProt O39930); test: Inhibition of NS5B polymerase in HCV genotype 1b/4a chimeric replicon infected in human HuH7 replicon cells after 5 days by RT-PCR analysis; format: cell-based
[19] = biological target: RNA-directed RNA polymerase (Hepacivirus hominis) (UniProt O39930); test: Inhibition of NS5B polymerase in HCV genotype 2a infected in human HuH7 replicon cells after 5 days by RT-PCR analysis; format: cell-based; settings: Hepatitis C virus subtype 2a
[20] = biological target: RNA-directed RNA polymerase (Hepacivirus hominis) (UniProt O39930); test: Inhibition of NS5B polymerase in HCV genotype 1b/5a chimeric replicon infected in human HuH7 replicon cells after 5 days by RT-PCR analysis; format: cell-based
[21] = Drug metabolism in human HuH7 cells assessed as Tmax for NTP formation at 10 uM after 2 to 48 hrs by LC-MS/MS analysis; format: ADME, cell-based; settings: huh-7, 10 µM
Bone marrow cell [22] = test: Cytotoxicity against human bone marrow cells assessed as inhibition of burst forming unit-erythroid after 14 days by FACS analysis; format: cell-based; settings: 336 h
Bone marrow cell [23] = test: Cytotoxicity against human bone marrow cells assessed as inhibition of colony-forming unit-granulocyte after 14 days by FACS analysis; format: cell-based; settings: 336 h
[24] = Cardiotoxicity against human embryonic stem cell-induced ventricular cardiomyocytes administered on day 7 and measured on day 10 after 30 mins incubation by CellTiter Glo assay; format: toxicity, cell-based, Cardiac muscle cell
[25] = Half life in human intestinal microsomes by LC/MS/MS analysis; format: ADME, Intestine, Microsome
[26] = Stability in human plasma assessed as compound remaining at 2 uM after 120 mins by LC/MS/MS analysis; format: ADME, cell-free; settings: read-out: Stability
[27] = Stability in simulated intestinal fluid after 24 hrs by LC/MS/MS analysis; format: ADME; settings: simulated gi fluid
[28] = biological target: RNA-directed RNA polymerase (Hepacivirus hominis) (UniProt O39930); settings: genotype 1b/3a
Description: Inhibition of NS5B polymerase in HCV genotype 1b/3a chimeric replicon infected in human HuH7 replicon cells after 5 days by RT-PCR analysis

in vitro [29] = settings: human, liver microsomes; remark: listed apart in the source
Description: Half life in human liver microsomes in presence of NADPH regenerating system by LC/MS/MS analysis

in vitro [30] = settings: human, liver microsomes; remark: listed apart in the source
Description: Intrinsic clearance in human liver microsomes in presence of NADPH regenerating system by LC/MS/MS analysis

in vitro [31] = settings: human, liver microsomes; remark: listed apart in the source
Description: Stability in human liver microsomes assessed as compound remaining in absence of NADPH regenerating system after 60 mins by LC/MS/MS analysis

[32] = Drug uptake in Beagle dog liver at 10 mg/kg, po measured up to 4 hrs by LC-MS/MS analysis; settings: in vivo, BLD = below limit of detection
[33] = Drug metabolism in Beagle dog liver assessed as formation of triphosphate form parent nucleoside at 10 mg/kg, po measured up to 4 hrs by LC-MS/MS analysis; settings: in vivo

Compound: C[C@@]1(F)[C@H](O)[C@@H](COP(=O)(O)OP(=O)(O)OP(=O)(O)O)O[C@H]1n1ccc(=O)[nH]c1=O [GS-461203]
- Activity [1]: 3.1%
- IC50 [2]: > 100 µM
- IC50 (DNA polymerase beta): > 100 µM
- IC50 [3]: > 100 µM

Compound: CC(C)OC(=O)[C@H](C)NP(=O)(OC[C@H]1O[C@@H](n2ccc(=O)[nH]c2=O)[C@](F)(Br)[C@H]1O)Oc1ccccc1 (mixture of isomers)
- Activity (HepG2): 140%
- CC50 at 120 h [4]: > 100 µM
- CC50 at 96 h [5]: > 100 µM
- inhibition at 336 h, 50 µM [6]: 39%
- inhibition at 336 h, 50 µM [7]: 40%
- IC50 at 14 days [8]: > 50 µM
- remaining at 2 h, 2 µM [9]: 100%
- remaining at 2 h, 2 µM [10]: 0.2%
- EC90 [11]: 0.9 µM
- IC50 at 14 days [12]: > 50 µM
- CC50 (Huh-7): > 10 µM

Compound: CC(C)OC(=O)[C@H](C)NP(=O)(OC[C@H]1O[C@@H](n2cnc3c(N)ncnc32)[C@](F)(Br)[C@H]1O)Oc1ccccc1 (stereo partly drawn)
- CC50 [13]: > 10 µM
- CC50 at 120 h [4]: > 100 µM
- CC50 at 96 h [5]: > 100 µM

Compound: C[C@@]1(O)[C@H](O)[C@@H](COP(=O)(O)OP(=O)(O)OP(=O)(O)O)O[C@H]1n1ccc(=O)[nH]c1=O
- Activity [1]: 9.8%

Compound: CC(C)OC(=O)[C@H](C)NP(=O)(OC[C@H]1O[C@@H](n2ccc(N)nc2=O)C(F)(Br)C1O)Oc1ccccc1 (single isomer, unassigned)
- CC50 at 96 h [5]: > 100 µM
- CC50 (Vero): > 100 µM
- EC90 [11]: 1.8 µM
- CC50 (Huh-7): > 10 µM

Compound: Nc1ccn([C@@H]2O[C@H](CO)[C@@H](O)[C@]2(F)Br)c(=O)n1
- CC50 at 96 h [5]: > 100 µM
- CC50 (Vero): > 100 µM
- EC90 [11]: 9.5 µM
- CC50 (Huh-7): > 10 µM

Compound: O=C(O)Cc1ccccc1Nc1c(Cl)cccc1Cl [DICLOFENAC]
- CLint scaled (in vitro [14]): 116 mL/min/kg

Compound: CC(C)OC(=O)[C@H](C)N[P@@](=O)(OC[C@H]1O[C@@H](n2ccc(=O)[nH]c2=O)C(F)(Br)C1O)Oc1ccccc1 (single isomer, unassigned)
- IC50 at 14 days [15]: > 100 µM
- IC50 at 3 days [16]: > 100 µM
- IC50 at 3 days [17]: > 100 µM
- Activity (HepG2): 100%
- EC90 [18]: 0.87 µM
- EC90 [19]: 0.83 µM
- CC50 [13]: > 10 µM
- CC50 at 120 h [4]: > 100 µM
- CC50 at 96 h [5]: > 100 µM
- EC90 [20]: 0.8 µM
- Tmax [21]: 24 h
- inhibition at 336 h, 50 µM [6]: 31%
- inhibition at 336 h, 50 µM [7]: < 1%
- IC50 at 14 days [8]: > 50 µM
- IC50 (Bone marrow cell [22]): > 100 µM
- IC50 (Bone marrow cell [23]): > 100 µM
- IC50 at 3 days [24]: > 100 µM
- half-life [25]: 2.2 h
- remaining at 2 h, 2 µM [26]: 72%
- Stability [27]: Stable
- EC90 [28]: 1.6 µM
- EC90 [11]: 0.53 to 2.4 µM
- IC50 at 14 days [12]: > 50 µM
- half-life (in vitro [29]): 0.307 h
- microsomal CLint (in vitro [30]): 75.3 µL/min/mg
- remaining at 1 h (in vitro [31]): 26.6%
- CLint scaled (in vitro [14]): 67.8 mL/min/kg
- Drug uptake [32]: Bld
- Drug metabolism [33]: Metabolite_Notdetected

Compound: Nc1nc2c(ncn2[C@@H]2O[C@H](CO)[C@@H](O)[C@]2(F)Br)c(=O)[nH]1
- CC50 at 96 h [5]: > 100 µM
- CC50 (Vero): > 100 µM
- EC90 [11]: > 10 µM
- CC50 (Huh-7): > 10 µM

Compound: CC(C)OC(=O)[C@H](C)NP(=O)(OC[C@H]1O[C@@H](n2cnc3c(=O)[nH]c(N)nc32)[C@](F)(Br)[C@H]1O)Oc1ccccc1 (stereo partly drawn)
- CC50 at 96 h [5]: > 100 µM
- EC90 [11]: 1.8 µM

Compound: O=c1ccn([C@@H]2O[C@H](COP(=O)(O)OP(=O)(O)OP(=O)(O)O)[C@@H](O)[C@H]2O)c(=O)[nH]1 [URIDINE TRIPHOSPHATE]
- Activity [1]: 100%

Compound: Nc1ncnc2c1ncn2[C@@H]1O[C@H](CO)C(O)C1(F)Br (single isomer, unassigned)
- CC50 at 96 h [5]: > 100 µM
- CC50 (Vero): > 100 µM
- EC90 [11]: > 10 µM
- CC50 (Huh-7): > 10 µM
